This is an account of results in ChEMBL document CHEMBL1909046, “DrugMatrix in vitro pharmacology data”.

One assay deals with T1, B2 bradykinin receptor (Homo sapiens, UniProt P30411).
T1 sequence (P30411 whole entry): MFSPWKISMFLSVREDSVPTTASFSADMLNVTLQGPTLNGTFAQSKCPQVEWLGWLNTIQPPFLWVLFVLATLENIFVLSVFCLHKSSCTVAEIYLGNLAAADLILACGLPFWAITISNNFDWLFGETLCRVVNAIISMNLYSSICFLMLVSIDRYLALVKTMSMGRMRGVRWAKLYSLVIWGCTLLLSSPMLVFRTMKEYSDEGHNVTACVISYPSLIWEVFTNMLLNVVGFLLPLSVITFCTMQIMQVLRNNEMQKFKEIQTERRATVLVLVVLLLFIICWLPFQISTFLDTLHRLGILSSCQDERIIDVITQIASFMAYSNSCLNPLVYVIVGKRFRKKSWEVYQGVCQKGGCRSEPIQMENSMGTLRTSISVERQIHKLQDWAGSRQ
The assay is classed as cell membranes, Membrane. The following applies: chem-1.

Assay [1] concerns the target Mitogen-activated protein kinase 3 (Homo sapiens, UniProt P27361). The assay is described as follows: DRUGMATRIX: Protein Serine/Threonine Kinase, ERK1 enzyme inhibition (substrate: Myelin Basic Protein). More on the design: species or system Escherichia coli. As to conditions: Not Active = under 50% inhibition at 10 µM.
Assay [2] concerns the target T2, Muscarinic acetylcholine receptor M5 (Homo sapiens, UniProt P08912). Also: in other assays of this panel Not Active means under 50% inhibition at 10 µM.
T2 sequence (P08912 whole entry): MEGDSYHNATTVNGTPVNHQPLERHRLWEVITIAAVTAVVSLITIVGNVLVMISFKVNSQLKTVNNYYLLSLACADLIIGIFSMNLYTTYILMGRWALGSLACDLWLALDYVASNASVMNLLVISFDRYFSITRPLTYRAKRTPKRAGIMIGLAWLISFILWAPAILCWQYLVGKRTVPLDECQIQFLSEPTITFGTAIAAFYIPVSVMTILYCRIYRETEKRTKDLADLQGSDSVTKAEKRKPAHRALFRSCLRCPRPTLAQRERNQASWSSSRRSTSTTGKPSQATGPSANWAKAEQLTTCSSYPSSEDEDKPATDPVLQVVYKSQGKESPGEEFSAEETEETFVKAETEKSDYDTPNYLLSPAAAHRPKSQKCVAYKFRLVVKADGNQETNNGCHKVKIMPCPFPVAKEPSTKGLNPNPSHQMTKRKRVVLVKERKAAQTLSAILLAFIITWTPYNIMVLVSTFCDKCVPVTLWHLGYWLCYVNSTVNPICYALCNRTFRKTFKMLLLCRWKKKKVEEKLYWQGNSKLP
Format: cell membranes, CHO-K1, Membrane.

The target of assay [3] is T3, 5-hydroxytryptamine receptor 2C (Homo sapiens, UniProt P28335).
T3 sequence (P28335 whole entry): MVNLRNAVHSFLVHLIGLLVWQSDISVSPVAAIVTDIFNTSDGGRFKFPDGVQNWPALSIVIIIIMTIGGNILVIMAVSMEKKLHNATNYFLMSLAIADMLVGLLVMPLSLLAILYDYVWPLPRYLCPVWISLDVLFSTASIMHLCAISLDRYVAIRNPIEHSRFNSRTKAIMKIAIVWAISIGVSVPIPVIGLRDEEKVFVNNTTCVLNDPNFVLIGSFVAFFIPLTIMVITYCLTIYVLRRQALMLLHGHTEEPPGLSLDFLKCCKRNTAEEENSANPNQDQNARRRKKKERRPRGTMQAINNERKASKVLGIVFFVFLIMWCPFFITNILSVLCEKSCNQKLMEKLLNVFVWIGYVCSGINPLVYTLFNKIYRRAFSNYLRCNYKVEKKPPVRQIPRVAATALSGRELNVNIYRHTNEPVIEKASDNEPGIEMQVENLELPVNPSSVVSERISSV
The assay is described as follows: DRUGMATRIX: Serotonin (5-Hydroxytryptamine) 5-HT2C radioligand binding (ligand: [3H] Mesulergine). The assay is classed as cell membranes, CHO-K1, Membrane. As to conditions: Not Active = under 50% inhibition at 10 µM.

A further assay addresses T4, D(4) dopamine receptor (Homo sapiens, UniProt P21917).
T4 sequence (P21917 whole entry): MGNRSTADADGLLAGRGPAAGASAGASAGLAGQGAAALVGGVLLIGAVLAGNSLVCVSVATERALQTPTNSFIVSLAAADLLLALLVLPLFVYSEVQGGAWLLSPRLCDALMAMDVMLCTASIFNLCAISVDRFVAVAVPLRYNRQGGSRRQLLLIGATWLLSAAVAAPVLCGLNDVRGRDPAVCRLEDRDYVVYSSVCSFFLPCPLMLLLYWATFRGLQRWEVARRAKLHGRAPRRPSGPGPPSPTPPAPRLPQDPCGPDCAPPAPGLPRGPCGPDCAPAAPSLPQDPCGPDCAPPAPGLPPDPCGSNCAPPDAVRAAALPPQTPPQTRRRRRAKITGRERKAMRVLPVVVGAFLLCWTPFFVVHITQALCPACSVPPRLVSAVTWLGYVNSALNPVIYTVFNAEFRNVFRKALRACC
Briefly: DRUGMATRIX: Dopamine D4.2 radioligand binding (ligand: [3H] Spiperone). Format: cell membranes, CHO-K1, Membrane. As to conditions: cho-k1; Not Active = under 50% inhibition at 10 µM.

Mitogen-activated protein kinase 3, sequence (P27361 whole entry): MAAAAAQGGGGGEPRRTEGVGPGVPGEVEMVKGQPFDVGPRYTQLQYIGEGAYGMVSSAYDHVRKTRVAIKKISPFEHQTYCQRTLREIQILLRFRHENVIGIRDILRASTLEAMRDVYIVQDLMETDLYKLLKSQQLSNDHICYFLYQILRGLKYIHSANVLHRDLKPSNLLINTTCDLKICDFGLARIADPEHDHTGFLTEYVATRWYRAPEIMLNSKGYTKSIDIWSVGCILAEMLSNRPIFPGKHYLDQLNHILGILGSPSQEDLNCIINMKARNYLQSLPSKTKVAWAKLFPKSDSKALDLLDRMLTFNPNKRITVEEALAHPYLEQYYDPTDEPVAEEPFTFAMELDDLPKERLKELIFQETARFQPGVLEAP

The IC50 is the concentration at which inhibition is half-maximal. `CSc1ccc(/C=C2/C(C)=C(CC(=O)O)c3cc(F)ccc32)cc1` [SULINDAC SULFIDE]: the 50% inhibitory concentration (IC50) result (against B2 bradykinin receptor; in assay [1]; in assay [2] (cho-k1); in assay [3] (cho-k1); at D(4) dopamine receptor) was “Not Active” each time.
Take `Nc1c2c(nc3ccccc13)CCCC2` [TACRINE]: the IC50 entry (at B2 bradykinin receptor; in assay [1]; in assay [2] (cho-k1); in assay [3] (cho-k1); at D(4) dopamine receptor) was “Not Active” throughout.
As usually defined, the Ki is a dissociation constant, usually derived from enzyme kinetics or from competition with a known ligand. As to `CC(C)N1CCN(c2ccc(OCC3COC(Cn4cncn4)(c4ccc(Cl)cc4Cl)O3)cc2)CC1` (configuration not stated) [TERCONAZOLE], the half-maximal inhibitory concentration (IC50) entry is “Not Active” at B2 bradykinin receptor; “Not Active” in assay [1]; 4.36 µM in assay [2] (read-out: IC50); 6.96 µM in assay [3] (read-out: IC50); “Not Active” on D(4) dopamine receptor. Besides, the Ki in assay [2] (read-out: Ki) came out at 3.13 µM; in assay [3] (read-out: Ki) it was 3.65 µM.
On to `Nc1nc2nc[nH]c2c(=S)[nH]1` [THIOGUANINE], for which the IC50 result is “Not Active” at B2 bradykinin receptor; 5.52 µM in assay [1] (read-out: IC50); “Not Active” in assay [2] (cho-k1); “Not Active” in assay [3] (cho-k1); “Not Active” on D(4) dopamine receptor.
As to `Cc1cccc(N(C)C(=S)Oc2ccc3ccccc3c2)c1` [TOLNAFTATE], the IC50 entry (against B2 bradykinin receptor; in assay [1]; in assay [2] (cho-k1); in assay [3] (cho-k1); at D(4) dopamine receptor) was “Not Active” each time.
`NC[C@H]1CC[C@H](C(=O)O)CC1` [TRANEXAMIC ACID]: the IC50 result (at B2 bradykinin receptor; in assay [1]; in assay [2] (cho-k1); in assay [3] (cho-k1); at D(4) dopamine receptor) was “Not Active” throughout.
Consider `CC1(C)O[C@@H]2C[C@H]3[C@@H]4CCC5=CC(=O)C=C[C@]5(C)[C@@]4(F)[C@@H](O)C[C@]3(C)[C@]2(C(=O)CO)O1` [TRIAMCINOLONE ACETONIDE], for which the IC50 entry (against B2 bradykinin receptor; in assay [1]; in assay [2] (cho-k1); in assay [3] (cho-k1); on D(4) dopamine receptor) was “Not Active” throughout.
On to `NS(=O)(=O)c1cc2c(cc1Cl)NC(C(Cl)Cl)NS2(=O)=O` (configuration not stated) [TRICHLORMETHIAZIDE], for which the 50% inhibitory concentration (IC50) entry (on B2 bradykinin receptor; in assay [1]; in assay [2] (cho-k1); in assay [3] (cho-k1); on D(4) dopamine receptor) was “Not Active” in each case.
For `Cc1c(C)c2c(c(C)c1O)CCC(C)(COc1ccc(CC3SC(=O)NC3=O)cc1)O2` (configuration not stated) [TROGLITAZONE], the IC50 result (on B2 bradykinin receptor; in assay [1]; in assay [2] (cho-k1); in assay [3] (cho-k1); at D(4) dopamine receptor) was “Not Active” in each case.
As for `N[C@@H]1[C@H]2CN(c3nc4c(cc3F)c(=O)c(C(=O)O)cn4-c3ccc(F)cc3F)C[C@@H]12` [TROVAFLOXACIN], the half-inhibitory concentration (IC50) result (at B2 bradykinin receptor; in assay [1]; in assay [2] (cho-k1); in assay [3] (cho-k1); on D(4) dopamine receptor) was “Not Active” in each case.
Regarding `N#CC(C#N)=Cc1ccc(O)c(O)c1` [TYRPHOSTIN 23], the IC50 result (at B2 bradykinin receptor; in assay [1]; in assay [2] (cho-k1); in assay [3] (cho-k1); on D(4) dopamine receptor) was “Not Active” each time.
Turning to `CC[C@]1(O)C[C@H]2CN(CCc3c([nH]c4ccccc34)[C@@](C(=O)OC)(c3cc4c(cc3OC)N(C=O)[C@H]3[C@@](O)(C(=O)OC)[C@H](OC(C)=O)[C@]5(CC)C=CCN6CC[C@]43[C@@H]65)C2)C1` [VINCRISTINE], the IC50 result (at B2 bradykinin receptor; in assay [1]; in assay [2] (cho-k1); in assay [3] (cho-k1); at D(4) dopamine receptor) was “Not Active” each time.
Turning to `CCCOc1ccccc1-c1nc2nn[nH]c2c(=O)[nH]1` [ZAPRINAST], the IC50 entry (at B2 bradykinin receptor; in assay [1]; in assay [2] (cho-k1); in assay [3] (cho-k1); on D(4) dopamine receptor) was “Not Active” in each case.
For the compound SODIUM NITROPRUSSIDE, the IC50 result (against B2 bradykinin receptor; in assay [1]; in assay [2] (cho-k1); in assay [3] (cho-k1); on D(4) dopamine receptor) was “Not Active” each time. Moreover, the Ki result (at B2 bradykinin receptor; in assay [1]; in assay [2] (cho-k1); in assay [3] (cho-k1); on D(4) dopamine receptor) was “Not Active” each time.
